Among the data in patent publication US8937053B2, “Process for the preparation of prasugrel and several novel crystalline forms of prasugrel hydrochloride” (Sunshine Lake Pharma Co., Ltd., priority 2011, dated 2015) are Solubility and solubility values, retold here.

The term Solubility denotes the dissolved amount per volume that the medium holds. Read a low Solubility as little dissolved substance. For orientation: solubility means the concentration that dissolves in the medium under given conditions. Low readings indicate little dissolved substance, high ones much dissolved substance.

The nature of the series: Solubility test (Chinese Pharmacopoeia 2010). The conditions noted are these: 0.1M HCl, 25±2° C., 300 mg ground powder sample, shaken 30 seconds at 5 minute intervals, 30 minutes total, dissolution judged by eye; for Solubility: hydrochloride. The class given is physicochemical. The protocol:
According to the solubility test described in “Chinese Pharmacopoeia 2010”, Topic and Requirement 15, the grinded sample in powder form was added to a certain amount of solvent at 25±2° C. […] The solid was deemed as dissolved when no solid was detected in the mixture by human eyes.

On to `CC(=O)Oc1cc2c(s1)CCN(C(C(=O)C1CC1)c1ccccc1F)C2.Cl` (stereo not shown) [Form H3, prasugrel hydrochloride], for which the Solubility came out at 50 mg/mL.

Regarding `CC(=O)Oc1cc2c(s1)CCN(C(C(=O)C1CC1)c1ccccc1F)C2.Cl` (stereo not shown) [Form B2, prasugrel hydrochloride], where the note is “25 °C, simulated gastric fluid, thermodynamic from solid”, the solubility at 30 min is 40 mg/mL. `CC(=O)Oc1cc2c(s1)CCN(C(C(=O)C1CC1)c1ccccc1F)C2.Cl` (stereo not shown) [Form H1, prasugrel hydrochloride] had a Solubility of 50 mg/mL.

Turning to `CC(=O)Oc1cc2c(s1)CCN(C(C(=O)C1CC1)c1ccccc1F)C2.Cl` (stereo not shown) [Form H2, prasugrel hydrochloride], the Solubility was found to be 50 mg/mL.
